The target of series [1] is p38 MAPKα isoform (MAPK14) (Homo sapiens (Human), UniProt Q16539). The experiment in a line: p38 MAPKα enzyme inhibition (FRET, Z-LYTE). The format is biochemical. On the procedure:
The enzyme inhibitory activities of compounds disclosed herein were determined by FRET using synthetic peptides labelled with both donor and acceptor fluorophores (Z-LYTE, Invitrogen Ltd., Paisley, UK). The inhibitory activities of test compounds against the p38 MAPKα isoform (MAPK14: Invitrogen), were evaluated indirectly by determining the level of activation/phosphorylation of the down-stream molecule, MAPKAP-K2. […] The mixture was incubated for 1 hr at RT. Development reagent (protease, 5 μL) was added for 1 hr prior to detection in a fluorescence microplate reader (Varioskan® Flash, ThermoFisher Scientific). In all cases, the site-specific protease cleaves non-phosphorylated peptide only and eliminates the FRET signal. Phosphorylation levels of each reaction were calculated using the ratio of coumarin emission (donor) over fluorescein emission (acceptor), for which low ratios indicate high phosphorylation and high ratios indicate low phosphorylation levels.

Series [2] relates to d-U937 cells. The experiment in a line: Cell viability: MTT assay. The format is cell-based, human. Conditions: 1 μg/mL. On the procedure:
Differentiated U937 cells were pre-incubated with each test compound (final concentration 1 μg/mL or 10 μg/mL in 200 μL media indicated below) under two protocols: the first for 4 hr in 5% FCS RPMI1640 media and the second in 10% FCS RPMI1640 media for 24 h. The supernatant was replaced with new media (200 μL) and MTT stock solution (10 μL, 5 mg/mL) was added to each well. After incubation for 1 hr the media were removed, DMSO (200 μL) was added to each well and the plates were shaken lightly for 1 hr prior to reading the absorbance at 550 nm. The percentage loss of cell viability was calculated for each well relative to vehicle (0.5% DMSO) treatment. Consequently an apparent increase in cell viability for drug treatment relative to vehicle is tabulated as a negative percentage.
For orientation: Formazan colour is commonly taken as a measure of viable cells.

The target in series [3] is p38MAPKγ (MAPK12) (Homo sapiens (Human), UniProt P53778). In words: p38 MAPKγ enzyme inhibition (FRET, Z-LYTE). It counts as biochemical. On the procedure:
The enzyme inhibitory activities of compounds disclosed herein were determined by FRET using synthetic peptides labelled with both donor and acceptor fluorophores (Z-LYTE, Invitrogen Ltd., Paisley, UK). […] Development reagent (protease, 5 μL) was added for 1 hr prior to detection in a fluorescence microplate reader (Varioskan® Flash, Thermo Scientific). In all cases, the site-specific protease cleaves non-phosphorylated peptide only and eliminates the FRET signal. Phosphorylation levels of each reaction were calculated using the ratio of coumarin emission (donor) over fluorescein emission (acceptor), for which low ratios indicate high phosphorylation and high ratios indicate low phosphorylation levels.

Series [4] has as its system ICAM-1 expression in BEAS2B cells. In words: Poly I:C-induced ICAM-1 expression in BEAS2B cells. The format is cell-based, human. The settings on record: Homo sapiens, BEAS-2B, read-out: PolyIC/ICAM1 IC50 (BEAS2B). The procedure: Poly I:C was used in these studies as a simple, RNA virus mimic. Poly I:C-Oligofectamine mixture (1 μg/mL Poly I:C, ±2% Oligofectamine, 25 μL; Invivogen Ltd., San Diego, Calif., and Invitrogen, Carlsbad, Calif., respectively) was transfected into BEAS2B cells (human bronchial epithelial cells, ATCC). Cells were pre-incubated with final concentrations of test compounds for 2 hr and the level of ICAM-1 expression on the cell surface was determined by cell-based ELISA. At a time point 18 hr after poly I:C transfection, cells were fixed with 4% formaldehyde in PBS (100 μL) and then endogenous peroxidase was quenched by the addition of washing buffer (100 μL, 0.05% Tween in PBS: PBS-Tween) containing 0.1% sodium azide and 1% hydrogen peroxide. Cells were washed with wash-buffer (3×200 μL). and after blocking the wells with 5% milk in PBS-Tween (100 μL) for 1 hr, the cells were incubated with anti-human ICAM-1 antibody (50 μL; Cell Signaling Technology, Danvers, Mass.) in 1% BSA PBS overnight at 4° C.
The cells were washed with PBS-Tween (3×200 μL) and incubated with the secondary antibody (100 μL; HRP-conjugated anti-rabbit IgG, Dako Ltd., Glostrup, Denmark). The cells were then incubated with of substrate (50 μL) for 2-20 min, followed by the addition of stop solution (50 μL, 1N H2SO4). The ICAM-1 signal was detected by reading […] the absorbance at 450 nm against a reference wavelength of 655 nm using a spectrophotometer. The cells were then washed with PBS-Tween (3×200 μL) and total cell numbers in each well were determined by reading absorbance at 595 nm after Crystal Violet staining (50 μL of a 2% solution in PBS) and elution by 1% SDS solution (100 μL) in distilled water. The measured OD 450-655 readings were corrected for cell number by dividing with the OD595 reading in each well. The inhibition of ICAM-1 expression was calculated at each concentration of test compound by comparison with vehicle control.

Series [5] addresses GSK 3α enzyme isoform (Homo sapiens (Human), UniProt P49840). The experiment in a line: GSK 3α enzyme inhibition (FRET, Z-LYTE). It counts as biochemical. The settings on record: read-out: IC50 Values for Enzyme Inhibition GSK3α. On the procedure:
The enzyme inhibitory activities of compounds disclosed herein were determined by FRET using synthetic peptides labelled with both donor and acceptor fluorophores (Z-LYTE, Invitrogen Ltd., Paisley, UK).
The inhibitory activities of test compounds against the GSK 3α enzyme isoform (Invitrogen), were evaluated by determining the level of activation/phosphorylation of the target peptide.
The GSK3-α protein (500 ng/mL, 2.5 μL) was mixed with the test compound (2.5 μL at either 4 μg/mL, 0.4 μg/mL, 0.04 μg/mL, or 0.004 μg/mL) for 2 hr at RT. The FRET peptide (8 μM, 2.5 μL), which is a phosphorylation target for GSK3α, and ATP (40 μM, 2.5 μL) were then added to the enzyme/compound mixture and the resulting mixture incubated for 1 hr. Development reagent (protease, 5 μL) was added for 1 hr prior to detection in a fluorescence microplate reader (Varioskan® Flash, ThermoFisher Scientific).
In all cases, the site-specific protease cleaves non-phosphorylated peptide only and eliminates the FRET signal. Phosphorylation levels of each reaction were calculated using the ratio of coumarin emission (donor) over fluorescein emission (acceptor), for which low ratios indicate high phosphorylation and high ratios indicate low phosphorylation levels.

Seven compounds from patent US9724347B2, “1-pyrazolyl-3-(4-((2-anilinopyrimidin-4-yl)oxy)napththalen-1-yl) ureas as P38 MAP knase inhibitors” (Respivert Ltd., priority 2011, dated 2017) can be followed below.

Sequence of p38MAPKγ (MAPK12) (P53778 whole entry): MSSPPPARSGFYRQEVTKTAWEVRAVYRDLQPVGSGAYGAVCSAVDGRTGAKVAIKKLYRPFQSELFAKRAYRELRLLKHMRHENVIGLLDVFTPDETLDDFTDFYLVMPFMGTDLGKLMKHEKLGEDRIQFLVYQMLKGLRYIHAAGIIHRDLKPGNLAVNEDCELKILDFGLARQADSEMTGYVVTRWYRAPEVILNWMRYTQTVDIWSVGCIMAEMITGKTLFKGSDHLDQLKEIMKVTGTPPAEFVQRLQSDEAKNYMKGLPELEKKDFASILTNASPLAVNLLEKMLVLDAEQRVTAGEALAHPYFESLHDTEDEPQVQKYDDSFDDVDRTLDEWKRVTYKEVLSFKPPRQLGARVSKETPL
Sequence of p38 MAPKα isoform (MAPK14) (Q16539 whole entry, canonical isoform): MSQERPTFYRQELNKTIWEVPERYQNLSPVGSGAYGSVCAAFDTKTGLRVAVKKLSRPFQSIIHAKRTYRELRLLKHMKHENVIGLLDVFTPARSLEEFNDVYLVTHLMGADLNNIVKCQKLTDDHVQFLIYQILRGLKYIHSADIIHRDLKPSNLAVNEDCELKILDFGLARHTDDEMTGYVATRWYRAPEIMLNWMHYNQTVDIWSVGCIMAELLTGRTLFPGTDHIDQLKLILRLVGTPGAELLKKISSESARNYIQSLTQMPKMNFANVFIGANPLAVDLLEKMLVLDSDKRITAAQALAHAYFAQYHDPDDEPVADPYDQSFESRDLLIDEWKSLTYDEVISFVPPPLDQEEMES
Sequence of GSK 3α enzyme isoform (P49840 whole entry, canonical isoform): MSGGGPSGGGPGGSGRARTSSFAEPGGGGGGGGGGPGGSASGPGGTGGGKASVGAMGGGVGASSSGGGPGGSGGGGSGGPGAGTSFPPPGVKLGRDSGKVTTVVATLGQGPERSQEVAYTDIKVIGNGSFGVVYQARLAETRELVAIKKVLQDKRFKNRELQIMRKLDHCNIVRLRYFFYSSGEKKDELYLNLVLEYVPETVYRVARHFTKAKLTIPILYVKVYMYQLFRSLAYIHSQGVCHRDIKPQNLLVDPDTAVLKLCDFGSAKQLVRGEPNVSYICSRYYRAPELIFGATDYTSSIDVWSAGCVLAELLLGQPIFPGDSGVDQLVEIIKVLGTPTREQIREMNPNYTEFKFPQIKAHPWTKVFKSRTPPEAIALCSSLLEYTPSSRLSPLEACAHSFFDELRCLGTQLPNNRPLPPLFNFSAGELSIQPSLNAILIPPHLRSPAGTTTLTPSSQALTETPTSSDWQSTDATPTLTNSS

With `COc1ccc(Nc2nccc(Oc3ccc(NC(=O)Nc4cc(C(C)(C)C)nn4-c4ccc(C)cc4)c4ccccc34)n2)cc1` [Example 17, 1-(3-(tert-butyl)-1-(p-tolyl)-1H-pyrazol-5-yl)-3-(4-((2-((4-methoxyphenyl)amino)pyrimidin-4-yl)oxy)naphthalen-1-yl)urea], the IC50 in series [1] is 83 nM; in series [3], more than 16300 nM; in series [4], 6.7 nM; in series [5] it was more than 16300 nM. Further, the “MTT Assay Cell viability at time point in d-U937 Cells” value (“MTT Assay Cell viability” for short) in series [2] (4 h) is “−ve (−ve and +ve indicate the value is below and above respectively, the no significant effect threshold defined as 30% inhibition at 1 μg/mL at the time point indicated)”; in series [2] (24 h), “−ve (−ve and +ve indicate the value is below and above respectively, the no significant effect threshold defined as 30% inhibition at 1 μg/mL at the time point indicated)”.

On to `Cc1ccc(-n2nc(C(C)(C)C)cc2NC(=O)Nc2ccc(Oc3ccnc(Nc4cc(C)ccc4C)n3)c3ccccc23)cc1` [Example 10, 1-(3-(tert-butyl)-1-(p-tolyl)-1H-pyrazol-5-yl)-3-(4-((2-((2,5-dimethylphenyl)amino)pyrimidin-4-yl)oxy)naphthalen-1-yl)urea], for which the IC50 in series [1] was 195 nM; in series [3], more than 16300 nM; in series [4], 43 nM; in series [5], more than 16300 nM. Besides, the “MTT Assay Cell viability” value in series [2] (4 h) was “−ve (−ve and +ve indicate the value is below and above respectively, the no significant effect threshold defined as 30% inhibition at 1 μg/mL at the time point indicated)”; in series [2] (24 h), “−ve (−ve and +ve indicate the value is below and above respectively, the no significant effect threshold defined as 30% inhibition at 1 μg/mL at the time point indicated)”.

With `Cc1ccc(-n2nc(C(C)(C)C)cc2NC(=O)Nc2ccc(Oc3ccnc(Nc4ccc(F)cc4)n3)c3ccccc23)cc1` [Example 23, 1-(3-(tert-butyl)-1-(p-tolyl)-1H-pyrazol-5-yl)-3-(4-((2-((4-fluorophenyl)amino)pyrimidin-4-yl)oxy)naphthalen-1-yl)urea], the IC50 in series [1] was 212 nM; in series [3], more than 1660 nM; in series [4] it was 4.2 nM; in series [5], more than 1660 nM. Further, the “MTT Assay Cell viability” value was “−ve (−ve and +ve indicate the value is below and above respectively, the no significant effect threshold defined as 30% inhibition at 1 μg/mL at the time point indicated)” in series [2] (4 h); “−ve (−ve and +ve indicate the value is below and above respectively, the no significant effect threshold defined as 30% inhibition at 1 μg/mL at the time point indicated)” in series [2] (24 h).

`Cc1ccc(-n2nc(C(C)(C)C)cc2NC(=O)Nc2ccc(Oc3ccnc(Nc4ccccc4C(C)C)n3)c3ccccc23)cc1` [Example 20, 1-(3-(tert-butyl)-1-(p-tolyl)-1H-pyrazol-5-yl)-3-(4-((2-((2-isopropylphenyl)amino)pyrimidin-4-yl)oxy)naphthalen-1-yl)urea]: the IC50 was 9 nM in series [1], more than 16000 nM in series [3], 16 nM in series [4] and more than 16000 nM in series [5]. Moreover, the “MTT Assay Cell viability” value is “−ve (−ve and +ve indicate the value is below and above respectively, the no significant effect threshold defined as 30% inhibition at 1 μg/mL at the time point indicated)” in series [2] (4 h); “−ve (−ve and +ve indicate the value is below and above respectively, the no significant effect threshold defined as 30% inhibition at 1 μg/mL at the time point indicated)” in series [2] (24 h).

On to `COc1cccc(Nc2nccc(Oc3ccc(NC(=O)Nc4cc(C(C)(C)C)nn4-c4ccc(C)cc4)c4ccccc34)n2)c1` [Example 14, 1-(3-(tert-butyl)-1-(p-tolyl)-1H-pyrazol-5-yl)-3-(4-((2-((3-methoxyphenyl)amino)pyrimidin-4-yl)oxy)naphthalen-1-yl)urea], for which the IC50 was 119 nM in series [1], more than 16300 nM in series [3], 9.8 nM in series [4] and more than 16300 nM in series [5]. Moreover, the “MTT Assay Cell viability” value was “−ve (−ve and +ve indicate the value is below and above respectively, the no significant effect threshold defined as 30% inhibition at 1 μg/mL at the time point indicated)” in series [2] (4 h); “−ve (−ve and +ve indicate the value is below and above respectively, the no significant effect threshold defined as 30% inhibition at 1 μg/mL at the time point indicated)” in series [2] (24 h).

For the compound `COc1ccc(Nc2nccc(Oc3ccc(NC(=O)Nc4cc(C(C)(C)C)nn4-c4ccc(C)cc4)c4ccccc34)n2)cc1Cl` [Example 28, 1-(3-(tert-butyl)-1-(p-tolyl)-1H-pyrazol-5-yl)-3-(4-((2-((3-chloro-4-methoxyphenyl)amino)pyrimidin-4-yl)oxy)naphthalen-1-yl)urea], the IC50 is 1420 nM in series [1], more than 1540 nM in series [3], 3 nM in series [4] and more than 1540 nM in series [5]. In addition, the “MTT Assay Cell viability” value is “−ve (−ve and +ve indicate the value is below and above respectively, the no significant effect threshold defined as 30% inhibition at 1 μg/mL at the time point indicated)” in series [2] (4 h); “−ve (−ve and +ve indicate the value is below and above respectively, the no significant effect threshold defined as 30% inhibition at 1 μg/mL at the time point indicated)” in series [2] (24 h).

Turning to `Cc1ccc(Nc2nccc(Oc3ccc(NC(=O)Nc4cc(C(C)(C)C)nn4-c4ccc(C)cc4)c4ccccc34)n2)cc1` [Example 11, 1-(3-(tert-butyl)-1-(p-tolyl)-1H-pyrazol-5-yl)-3-(4-((2-(p-tolylamino)pyrimidin-4-yl)oxy)naphthalen-1-yl)urea], the IC50 in series [1] is 356 nM; in series [3], more than 16700 nM; in series [4], 11 nM; in series [5], more than 16700 nM. Besides, the “MTT Assay Cell viability” value is “−ve (−ve and +ve indicate the value is below and above respectively, the no significant effect threshold defined as 30% inhibition at 1 μg/mL at the time point indicated)” in series [2] (4 h); “−ve (−ve and +ve indicate the value is below and above respectively, the no significant effect threshold defined as 30% inhibition at 1 μg/mL at the time point indicated)” in series [2] (24 h).
